From PubChem BioAssay (NCI)
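Dose response: 5 concentrations. Exposure: 48 h. Format: 96-well plates. Endpoint: linear interpolation; highest concentration if not reached. TGI denotes the concentration required for complete inhibition of growth.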

What was measured:
Experiment in all cases: NCI tumour cell line growth inhibition, 48 h
786-0 renal = test system: 786-0 renal
A498 renal = test system: A498 renal
A549 NSCLC = test system: A549 NSCLC
ACHN renal = test system: ACHN renal
BT-549 breast = test system: BT-549 breast
CAKI-1 renal = test system: CAKI-1 renal
CCRF-CEM leukemia = test system: CCRF-CEM leukemia
COLO 205 colon = test system: COLO 205 colon
DU-145 prostate = test system: DU-145 prostate
EKVX NSCLC = test system: EKVX NSCLC
HCT-116 colon = test system: HCT-116 colon
HCT-15 colon = test system: HCT-15 colon
HL-60(TB) leukemia = test system: HL-60(TB) leukemia
HOP-62 NSCLC = test system: HOP-62 NSCLC
HOP-92 NSCLC = test system: HOP-92 NSCLC
HS 578T breast = test system: HS 578T breast
HT29 colon = test system: HT29 colon
IGROV1 ovarian = test system: IGROV1 ovarian
KM12 colon = test system: KM12 colon
LOX IMVI melanoma = test system: LOX IMVI melanoma
M14 melanoma = test system: M14 melanoma
MCF7 breast = test system: MCF7 breast
MDA-MB-231 breast = test system: MDA-MB-231 breast
MDA-MB-435 = test system: MDA-MB-435
MDA-N = test system: MDA-N
MOLT-4 leukemia = test system: MOLT-4 leukemia
NCI-H226 lung = test system: NCI-H226 lung
NCI-H23 lung = test system: NCI-H23 lung
NCI-H460 lung = test system: NCI-H460 lung
NCI-H522 lung = test system: NCI-H522 lung
NCI/ADR-RES ovarian = test system: NCI/ADR-RES ovarian
OVCAR-3 ovarian = test system: OVCAR-3 ovarian
OVCAR-4 ovarian = test system: OVCAR-4 ovarian
OVCAR-5 ovarian = test system: OVCAR-5 ovarian
OVCAR-8 ovarian = test system: OVCAR-8 ovarian
PC-3 prostate = test system: PC-3 prostate
RXF 393 renal = test system: RXF 393 renal
SF-268 CNS = test system: SF-268 CNS
SF-295 CNS = test system: SF-295 CNS
SF-539 CNS = test system: SF-539 CNS
SK-MEL-2 melanoma = test system: SK-MEL-2 melanoma
SK-MEL-28 melanoma = test system: SK-MEL-28 melanoma
SK-MEL-5 melanoma = test system: SK-MEL-5 melanoma
SK-OV-3 ovarian = test system: SK-OV-3 ovarian
SN12C renal = test system: SN12C renal
SNB-19 CNS = test system: SNB-19 CNS
SNB-75 CNS = test system: SNB-75 CNS
SW-620 colon = test system: SW-620 colon
T-47D breast = test system: T-47D breast
TK-10 renal = test system: TK-10 renal
U251 CNS = test system: U251 CNS
UACC-257 melanoma = test system: UACC-257 melanoma
UACC-62 melanoma = test system: UACC-62 melanoma
UO-31 renal = test system: UO-31 renal
HCC-2998 colon = test system: HCC-2998 colon
MALME-3M melanoma = test system: MALME-3M melanoma
SR leukemia = test system: SR leukemia

O=[N+]([O-])c1ccc(NS(=O)(=O)C(F)(F)F)cc1
TGI (786-0 renal): > 100 µM
TGI (A498 renal): > 100 µM
TGI (A549 NSCLC): > 100 µM
TGI (ACHN renal): > 100 µM
TGI (BT-549 breast): > 100 µM
TGI (CAKI-1 renal): > 100 µM
TGI (CCRF-CEM leukemia): > 100 µM
TGI (COLO 205 colon): > 100 µM
TGI (DU-145 prostate): > 100 µM
TGI (EKVX NSCLC): > 100 µM
TGI (HCT-116 colon): > 100 µM
TGI (HCT-15 colon): > 100 µM
TGI (HL-60(TB) leukemia): > 100 µM
TGI (HOP-62 NSCLC): > 100 µM
TGI (HOP-92 NSCLC): > 100 µM
TGI (HS 578T breast): > 100 µM
TGI (HT29 colon): > 100 µM
TGI (IGROV1 ovarian): > 100 µM
TGI (KM12 colon): > 100 µM
TGI (LOX IMVI melanoma): > 100 µM
TGI (M14 melanoma): > 100 µM
TGI (MCF7 breast): > 100 µM
TGI (MDA-MB-231 breast): > 100 µM
TGI (MDA-MB-435): > 100 µM
TGI (MDA-N): > 100 µM
TGI (MOLT-4 leukemia): > 100 µM
TGI (NCI-H226 lung): > 100 µM
TGI (NCI-H23 lung): > 100 µM
TGI (NCI-H460 lung): > 100 µM
TGI (NCI-H522 lung): > 100 µM
TGI (NCI/ADR-RES ovarian): > 100 µM
TGI (OVCAR-3 ovarian): > 100 µM
TGI (OVCAR-4 ovarian): > 100 µM
TGI (OVCAR-5 ovarian): > 100 µM
TGI (OVCAR-8 ovarian): > 100 µM
TGI (PC-3 prostate): > 100 µM
TGI (RXF 393 renal): > 100 µM
TGI (SF-268 CNS): > 100 µM
TGI (SF-295 CNS): > 100 µM
TGI (SF-539 CNS): > 100 µM
TGI (SK-MEL-2 melanoma): > 100 µM
TGI (SK-MEL-28 melanoma): > 100 µM
TGI (SK-MEL-5 melanoma): > 100 µM
TGI (SK-OV-3 ovarian): > 100 µM
TGI (SN12C renal): > 100 µM
TGI (SNB-19 CNS): > 100 µM
TGI (SNB-75 CNS): > 100 µM
TGI (SW-620 colon): > 100 µM
TGI (T-47D breast): > 100 µM
TGI (TK-10 renal): > 100 µM
TGI (U251 CNS): > 100 µM
TGI (UACC-257 melanoma): > 100 µM
TGI (UACC-62 melanoma): > 100 µM
TGI (UO-31 renal): > 100 µM

O=C(c1ccco1)C1CC(c2ccc3ccccc3c2O)=NN1c1ccc([N+](=O)[O-])cc1[N+](=O)[O-] (stereo unspecified)
TGI (786-0 renal): > 100 µM
TGI (A498 renal): > 100 µM
TGI (A549 NSCLC): > 100 µM
TGI (ACHN renal): > 100 µM
TGI (BT-549 breast): > 100 µM
TGI (CAKI-1 renal): > 100 µM
TGI (CCRF-CEM leukemia): 10.6 µM
TGI (COLO 205 colon): 32 µM
TGI (DU-145 prostate): > 100 µM
TGI (HCC-2998 colon): > 100 µM
TGI (HCT-116 colon): > 100 µM
TGI (HCT-15 colon): > 100 µM
TGI (HOP-62 NSCLC): > 100 µM
TGI (HOP-92 NSCLC): 76.1 µM
TGI (HS 578T breast): 66.6 µM
TGI (HT29 colon): 42.3 µM
TGI (IGROV1 ovarian): > 100 µM
TGI (KM12 colon): 26.2 µM
TGI (M14 melanoma): > 100 µM
TGI (MALME-3M melanoma): > 100 µM
TGI (MCF7 breast): > 100 µM
TGI (MDA-MB-231 breast): 68.7 µM
TGI (MDA-MB-435): > 100 µM
TGI (MDA-N): > 100 µM
TGI (MOLT-4 leukemia): 11.4 µM
TGI (NCI-H226 lung): > 100 µM
TGI (NCI-H23 lung): > 100 µM
TGI (NCI-H460 lung): 33.9 µM
TGI (NCI-H522 lung): 47.5 µM
TGI (NCI/ADR-RES ovarian): 75.4 µM
TGI (OVCAR-3 ovarian): > 100 µM
TGI (OVCAR-4 ovarian): > 100 µM
TGI (OVCAR-5 ovarian): > 100 µM
TGI (OVCAR-8 ovarian): > 100 µM
TGI (PC-3 prostate): > 100 µM
TGI (RXF 393 renal): > 100 µM
TGI (SF-268 CNS): > 100 µM
TGI (SF-295 CNS): > 100 µM
TGI (SF-539 CNS): > 100 µM
TGI (SK-MEL-2 melanoma): 97.3 µM
TGI (SK-MEL-28 melanoma): > 100 µM
TGI (SK-OV-3 ovarian): 96.9 µM
TGI (SN12C renal): > 100 µM
TGI (SNB-75 CNS): 89.1 µM
TGI (SR leukemia): 23.1 µM
TGI (SW-620 colon): > 100 µM
TGI (T-47D breast): > 100 µM
TGI (TK-10 renal): > 100 µM
TGI (U251 CNS): > 100 µM
TGI (UACC-257 melanoma): > 100 µM
TGI (UACC-62 melanoma): > 100 µM
TGI (UO-31 renal): > 100 µM
